Experimental data as given in PubChem BioAssay (NCI).
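Tested at 5 concentrations; 48 h exposure; 96-well plates; endpoints linearly interpolated, else capped at highest concentration. The concentration for 50% growth inhibition is given as GI50. TGI marks complete inhibition of growth.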

Tests used:
Assay in all cases: NCI-60 cell line screen, 48 h
[1] = test system: 786-0 renal
[2] = test system: A498 renal
[3] = test system: A549 NSCLC
[4] = test system: ACHN renal
[5] = test system: CAKI-1 renal
[6] = test system: CCRF-CEM leukemia
[7] = test system: COLO 205 colon
[8] = test system: DLD-1 colon
[9] = test system: DMS 273 small cell lung
[10] = test system: EKVX NSCLC
[11] = test system: HCC-2998 colon
[12] = test system: HCT-116 colon
[13] = test system: HCT-15 colon
[14] = test system: HL-60(TB) leukemia
[15] = test system: HOP-18 NSCLC
[16] = test system: HOP-62 NSCLC
[17] = test system: HT29 colon
[18] = test system: IGROV1 ovarian
[19] = test system: K-562 leukemia
[20] = test system: KM12 colon
[21] = test system: KM20L2 colon
[22] = test system: LOX IMVI melanoma
[23] = test system: LXFL 529 NSCLC
[24] = test system: M14 melanoma
[25] = test system: MALME-3M melanoma
[26] = test system: MOLT-4 leukemia
[27] = test system: NCI-H226 lung
[28] = test system: NCI-H23 lung
[29] = test system: NCI-H460 lung
[30] = test system: NCI-H522 lung
[31] = test system: OVCAR-3 ovarian
[32] = test system: OVCAR-4 ovarian
[33] = test system: OVCAR-5 ovarian
[34] = test system: OVCAR-8 ovarian
[35] = test system: RPMI-8226 leukemia
[36] = test system: RXF 393 renal
[37] = test system: SF-268 CNS
[38] = test system: SF-295 CNS
[39] = test system: SF-539 CNS
[40] = test system: SK-MEL-2 melanoma
[41] = test system: SK-MEL-28 melanoma
[42] = test system: SK-MEL-5 melanoma
[43] = test system: SK-OV-3 ovarian
[44] = test system: SN12C renal
[45] = test system: SNB-19 CNS
[46] = test system: SNB-75 CNS
[47] = test system: SNB-78 CNS
[48] = test system: SW-620 colon
[49] = test system: TK-10 renal
[50] = test system: U251 CNS
[51] = test system: UACC-257 melanoma
[52] = test system: UACC-62 melanoma
[53] = test system: UO-31 renal
[54] = test system: DMS 114 small cell lung
[55] = test system: M19-MEL melanoma
[56] = test system: XF 498 CNS
[57] = test system: HOP-92 NSCLC

In the case of `CC(CN(CP(=O)([O-])[O-])CP(=O)([O-])[O-])N(CP(=O)([O-])[O-])CP(=O)([O-])[O-].N.N.[Pt+2]` (stereo not drawn), the GI50 [1] is reported as over 100 µM, the TGI [1] is reported as over 100 µM and the GI50 [2] is reported as over 100 µM. It also gave a TGI [2] of over 100 µM, a GI50 [3] of over 100 µM and a TGI [3] of over 100 µM. For the same molecule, the GI50 [4] was over 100 µM, the TGI [4] was over 100 µM and the GI50 [5] was over 100 µM. For the same molecule, the TGI [5] was over 100 µM, the GI50 [6] was over 100 µM and the TGI [6] was over 100 µM. It also gave a GI50 [7] of over 100 µM, a TGI [7] of over 100 µM and a GI50 [8] of over 100 µM. For the same molecule, the TGI [8] was over 100 µM, the GI50 [9] was over 100 µM and the TGI [9] was over 100 µM. It also gave a GI50 [10] of over 100 µM, a TGI [10] of over 100 µM and a GI50 [11] of over 100 µM. The TGI [11] was over 100 µM, the GI50 [12] was over 100 µM and the TGI [12] was over 100 µM. It also gave a GI50 [13] of over 100 µM, a TGI [13] of over 100 µM and a GI50 [14] of over 100 µM. For the same molecule, the TGI [14] was over 100 µM, the GI50 [15] was 26.1 µM and the TGI [15] was over 100 µM. It also gave a GI50 [16] of over 100 µM, a TGI [16] of over 100 µM and a GI50 [17] of over 100 µM. The TGI [17] was over 100 µM, the GI50 [18] was over 100 µM and the TGI [18] was over 100 µM. It also gave a GI50 [19] of over 100 µM, a TGI [19] of over 100 µM and a GI50 [20] of over 100 µM. For the same molecule, the TGI [20] was over 100 µM, the GI50 [21] was over 100 µM and the TGI [21] was over 100 µM. The GI50 [22] was over 100 µM, the TGI [22] was over 100 µM and the GI50 [23] was over 100 µM. For the same molecule, the TGI [23] was over 100 µM, the GI50 [24] was over 100 µM and the TGI [24] was over 100 µM. It also gave a GI50 [25] of over 100 µM, a TGI [25] of over 100 µM and a GI50 [26] of over 100 µM. It also gave a TGI [26] of over 100 µM, a GI50 [27] of over 100 µM and a TGI [27] of over 100 µM. For the same molecule, the GI50 [28] was over 100 µM, the TGI [28] was over 100 µM and the GI50 [29] was over 100 µM. It also gave a TGI [29] of over 100 µM, a GI50 [30] of over 100 µM and a TGI [30] of over 100 µM. The GI50 [31] was over 100 µM, the TGI [31] was over 100 µM and the GI50 [32] was over 100 µM. It also gave a TGI [32] of over 100 µM, a GI50 [33] of over 100 µM and a TGI [33] of over 100 µM. It also gave a GI50 [34] of over 100 µM, a TGI [34] of over 100 µM and a GI50 [35] of over 100 µM. The TGI [35] was over 100 µM, the GI50 [36] was over 100 µM and the TGI [36] was over 100 µM. For the same molecule, the GI50 [37] was over 100 µM, the TGI [37] was over 100 µM and the GI50 [38] was over 100 µM. It also gave a TGI [38] of over 100 µM, a GI50 [39] of over 100 µM and a TGI [39] of over 100 µM. For the same molecule, the GI50 [40] was over 100 µM, the TGI [40] was over 100 µM and the GI50 [41] was over 100 µM. For the same molecule, the TGI [41] was over 100 µM, the GI50 [42] was over 100 µM and the TGI [42] was over 100 µM. It also gave a GI50 [43] of over 100 µM, a TGI [43] of over 100 µM and a GI50 [44] of over 100 µM. It also gave a TGI [44] of over 100 µM, a GI50 [45] of over 100 µM and a TGI [45] of over 100 µM. The GI50 [46] was over 100 µM, the TGI [46] was over 100 µM and the GI50 [47] was over 100 µM. For the same molecule, the TGI [47] was over 100 µM, the GI50 [48] was over 100 µM and the TGI [48] was over 100 µM. For the same molecule, the GI50 [49] was over 100 µM, the TGI [49] was over 100 µM and the GI50 [50] was over 100 µM. For the same molecule, the TGI [50] was over 100 µM, the GI50 [51] was over 100 µM and the TGI [51] was over 100 µM. For the same molecule, the GI50 [52] was over 100 µM, the TGI [52] was over 100 µM and the GI50 [53] was over 100 µM. It also gave a TGI [53] of over 100 µM.

For `COc1ccc(C=C2C(=O)OC(C)(C)OC2=O)cc1OC`, the TGI [1] was over 100 µM, the TGI [2] was over 100 µM and the TGI [3] was over 100 µM. It also gave a TGI [4] of over 100 µM, a TGI [5] of over 100 µM and a TGI [6] of over 100 µM. It also gave a TGI [7] of over 100 µM, a TGI [8] of over 100 µM and a TGI [54] of over 100 µM. For the same molecule, the TGI [10] was over 100 µM, the TGI [11] was over 100 µM and the TGI [13] was over 100 µM. For the same molecule, the TGI [16] was over 100 µM, the TGI [17] was over 100 µM and the TGI [18] was over 100 µM. For the same molecule, the TGI [19] was over 100 µM, the TGI [20] was over 100 µM and the TGI [21] was over 100 µM. It also gave a TGI [23] of over 100 µM, a TGI [24] of over 100 µM and a TGI [55] of over 100 µM. It also gave a TGI [25] of over 100 µM, a TGI [26] of over 100 µM and a TGI [28] of over 100 µM. It also gave a TGI [29] of over 100 µM, a TGI [30] of over 100 µM and a TGI [31] of over 100 µM. The TGI [32] was over 100 µM, the TGI [33] was over 100 µM and the TGI [34] was over 100 µM. It also gave a TGI [35] of over 100 µM, a TGI [37] of over 100 µM and a TGI [38] of over 100 µM. The TGI [40] was over 100 µM, the TGI [41] was over 100 µM and the TGI [42] was over 100 µM. It also gave a TGI [43] of over 100 µM, a TGI [44] of over 100 µM and a TGI [45] of over 100 µM. For the same molecule, the TGI [46] was over 100 µM, the TGI [47] was over 100 µM and the TGI [48] was over 100 µM. It also gave a TGI [49] of over 100 µM, a TGI [50] of over 100 µM and a TGI [51] of over 100 µM. The TGI [52] was over 100 µM, the TGI [53] was over 100 µM and the TGI [56] was over 100 µM.

Molecule `CCCCCCCCCCC/C(=N/O)c1ccc(O)c2ncccc12` has a TGI [1] of 30.2 µM, a TGI [3] of 35.8 µM and a TGI [4] of 6.14 µM. The TGI [5] was 51.6 µM, the TGI [7] was over 100 µM and the TGI [8] was 8.91 µM. For the same molecule, the TGI [54] was 6.79 µM, the TGI [9] was 4.79 µM and the TGI [10] was 20.1 µM. The TGI [11] was 23.1 µM, the TGI [12] was 59.9 µM and the TGI [15] was 9.59 µM. The TGI [16] was 17.5 µM, the TGI [57] was 5.47 µM and the TGI [17] was 17.2 µM. It also gave a TGI [20] of over 100 µM, a TGI [21] of 17.6 µM and a TGI [22] of 13.6 µM. For the same molecule, the TGI [23] was 7.57 µM, the TGI [24] was 4.8 µM and the TGI [55] was 4.97 µM. It also gave a TGI [25] of 12.6 µM, a TGI [27] of 11.9 µM and a TGI [28] of 57.4 µM. It also gave a TGI [29] of 17 µM, a TGI [30] of 6.57 µM and a TGI [32] of 19.2 µM. The TGI [33] was 6.66 µM, the TGI [34] was 16.2 µM and the TGI [36] was 27.6 µM. For the same molecule, the TGI [37] was over 100 µM, the TGI [38] was 6.78 µM and the TGI [39] was 4.91 µM. It also gave a TGI [40] of 5.86 µM, a TGI [41] of over 100 µM and a TGI [42] of 4.18 µM. The TGI [45] was over 100 µM, the TGI [46] was 13.2 µM and the TGI [47] was over 100 µM. The TGI [48] was over 100 µM, the TGI [49] was over 100 µM and the TGI [50] was 23.5 µM. It also gave a TGI [51] of 24.2 µM and a TGI [53] of 11.4 µM.
